Among the test systems are CCRF-CEM; DMS-114; HCC 2998; HCT-15; HOP-92; KM-20L2; Malme-3M; SK-MEL-5; SNB-78; SR; XF498; HOP-62; MCF7; OVCAR-3; SK-OV-3; UACC-62; 786-0.
Assay in all cases: DTP human tumour cell line panel, 48 h

Results on seven compounds are retold here after ChEMBL document CHEMBL1201862, “PubChem BioAssay data set” (2004).

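A five-concentration, 48-hour dose response in 96-well plates underlies each endpoint, interpolated linearly between surrounding concentrations. GI50 is the concentration that inhibits growth by half.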 The source made the active and inactive calls. Rule as the data show it: active = GI50 up to about 1.1 µM and inactive = higher.

For the compound `CSc1cc(-c2cc3ccccc3o2)oc(=O)c1C#N`, the GI50 in the test with CCRF-CEM is > 100 µM (inactive); in the test with DMS-114, 7.43 µM (inactive); with HCC 2998, > 100 µM (inactive); in the test on HCT-15 it was above 100 µM; in the test on HOP-92 it was 0.301 µM (active); with KM-20L2, > 100 µM (inactive). The GI50 with Malme-3M was 3.6 µM (inactive); in the test on SK-MEL-5, > 100 µM (inactive); in the test with SNB-78, 88.1 µM (inactive); in the test with SR, 15.5 µM (inactive); with XF498, 5.83 µM (inactive).

In the case of `C/C(=N\NS(=O)(=O)c1ccccc1)c1ccccc1`, the GI50 is > 100 µM (inactive) with CCRF-CEM; > 100 µM (inactive) in the test with DMS-114; > 100 µM (inactive) in the test on HCC 2998; above 100 µM in the test on HCT-15; > 100 µM (inactive) in the test with HOP-62; > 100 µM (inactive) in the test on HOP-92. Moreover, the GI50 with KM-20L2 is > 100 µM (inactive); with MCF7, > 94 µM (inactive); in the test on Malme-3M, > 100 µM (inactive); with OVCAR-3 it was > 100 µM (inactive); in the test on SK-MEL-5, > 100 µM (inactive); with SK-OV-3, > 100 µM (inactive). For the same compound, the GI50 in the test on SNB-78, with UACC-62 and in the test with XF498 was > 100 µM (inactive) each time.

Turning to `C=C1C[C@@H]2C[C@@H](C)CC(O)[C@]2(CCCN)C1O` (some centres not stated), the GI50 in the test with 786-0, in the test on CCRF-CEM, in the test with DMS-114, with HCC 2998, in the test on HOP-62 and in the test on HOP-92 was > 100 µM (inactive) each time. Also, the GI50 with KM-20L2, in the test on Malme-3M, with OVCAR-3, in the test with SK-MEL-5, in the test with SK-OV-3 and with SNB-78 was > 100 µM (inactive) each time. For the same compound, the GI50 in the test on SR, in the test on UACC-62 and with XF498 was > 100 µM (inactive) throughout.

`CCOC(=O)/C=C/c1c(C)[nH]c(=O)[nH]c1=O`: the GI50 was > 250 µM (inactive) with CCRF-CEM; 120 µM (inactive) with DMS-114; > 250 µM (inactive) in the test on HCC 2998; above 250 µM in the test on HCT-15; > 250 µM (inactive) in the test with HOP-62; 19.1 µM (inactive) in the test on HOP-92. Also, the GI50 was > 250 µM (inactive) in the test with KM-20L2; 244 µM (inactive) in the test with MCF7; > 250 µM (inactive) in the test on Malme-3M; > 242 µM (inactive) in the test on OVCAR-3; > 250 µM (inactive) in the test on SK-MEL-5; > 141 µM (inactive) in the test on SK-OV-3. The GI50 with SNB-78, with UACC-62 and with XF498 was > 250 µM (inactive) throughout.

Regarding `CC1(C)O[C@@H](C[C@]2(C#N)C[C@H](CCl)OC(C)(C)O2)C[C@@H](C#N)O1`, the GI50 with 786-0 was > 100 µM (inactive); with CCRF-CEM, > 100 µM (inactive); in the test on DMS-114 it was > 100 µM (inactive); in the test with HCC 2998, > 100 µM (inactive); in the test with HCT-15, above 100 µM; in the test on HOP-62, > 100 µM (inactive). Also, the GI50 in the test with HOP-92 was 78.9 µM (inactive); in the test with KM-20L2 it was > 100 µM (inactive); in the test with Malme-3M, > 100 µM (inactive); in the test with OVCAR-3 it was > 100 µM (inactive); with SK-MEL-5, > 100 µM (inactive); in the test with SK-OV-3, > 100 µM (inactive). Further, the GI50 in the test on SNB-78 was > 100 µM (inactive); with SR it was > 100 µM (inactive); in the test with UACC-62 it was > 100 µM (inactive); in the test with XF498, 55.8 µM (inactive).

For `CN1CCN(P2(=S)Oc3ccc4ccccc4c3-c3c(ccc4ccccc34)O2)CC1`, the GI50 in the test with CCRF-CEM was 29.8 µM (inactive); with DMS-114, 29.6 µM (inactive); in the test with HCC 2998, 21 µM (inactive); in the test on HCT-15 it was 28.7 µM; with HOP-62, 26.3 µM (inactive); in the test on HOP-92, 13.6 µM (inactive). Also, the GI50 with KM-20L2 was 22.8 µM (inactive); in the test on MCF7 it was 13.6 µM (inactive); in the test on Malme-3M, 21.4 µM (inactive); with OVCAR-3, 27.9 µM (inactive); in the test on SK-MEL-5, 22.2 µM (inactive); with SK-OV-3, > 71.3 µM (inactive). In addition, the GI50 with SNB-78 is 50.4 µM (inactive); with UACC-62 it was 34.5 µM (inactive); in the test with XF498, 28.8 µM (inactive).

`CC(C)=CCC/C(C)=C/CCC1(C)C=Cc2c(c3ccccc3oc2=O)O1` (configuration not stated): the GI50 with CCRF-CEM was 38.5 µM (inactive); in the test on DMS-114 it was 15.8 µM (inactive); in the test on HCC 2998, 17.7 µM (inactive); with HCT-15, 16 µM; in the test on HOP-62, 13.2 µM (inactive); in the test with HOP-92 it was 12.2 µM (inactive). For the same compound, the GI50 in the test on KM-20L2 was 19.4 µM (inactive); with MCF7, 16.5 µM (inactive); in the test on Malme-3M, 27.6 µM (inactive); in the test on OVCAR-3, 18.1 µM (inactive); in the test on SK-MEL-5 it was 14.7 µM (inactive); with SK-OV-3, 27.3 µM (inactive). Besides, the GI50 with SNB-78 was > 56.2 µM (inactive); in the test on UACC-62, 10.2 µM (inactive); with XF498, 15.5 µM (inactive).
